Molecules are shown by their SMILES. Residues, ends and D or L forms follow the SMILES beside them. *: point of attachment. Boc = CC(C)(C)OC(=O)*

From the SangsterLogP compilation come the findings set out here.

In general, logD refers to lipophilicity at a set pH, counting ionised and neutral species. Low values mean lower lipophilicity, high ones higher lipophilicity. What is called logP is a log measure of how a compound divides between an organic and an aqueous phase. Low readings indicate lower lipophilicity, high ones higher lipophilicity.

The molecule `Nc1ncc(Cc2ccccc2Cl)c(N)n1` had a logD (pH 13.0) of 2.24.

`NC(=O)Nc1nc(-c2ccccc2)no1`: the logP came out at 1.76.

As for `Cn1cc(-c2ccccc2)c(=O)c(-c2cccc(C(F)(F)F)c2)c1`, the logD (pH 7.4) was found to be 3.16.

As to `COC(=O)CC#N`, the logP was -0.47.

On to `CC(=O)Nc1ncc([N+](=O)[O-])s1`, for which the logP was 1.3.

Regarding `CCC(=O)OC`, the logP was 0.82.

As for `COc1ccc(Oc2cnc(N)nc2N)c(OC)c1OC`, the logD (pH 13.0) worked out at 0.9.

`CC1(CO)COC(Cn2cncn2)(c2ccc(Cl)cc2Cl)OC1` (configuration not stated) registered a logD (pH 7.0) of 2.1.

In turn, `COc1ccc2cc(C(C)C(=O)OCC(=O)N(C)CC(N)=O)ccc2c1` (configuration not stated) had a logP of 1.37.

In the case of `NC(=S)N1CCCCC1`, the logP came to 0.73.

Where the note is “pH 1.0”, `CC(C)(CCC(=O)O)C(=O)O` returned a logD of 0.67.

Turning to `COC(=O)C1=CCCN(C)C1`, the logP was 0.35.

For the molecule `CCn1cnc2c(NC(C)=O)ncnc21`, the logP was -0.41.

In turn, `CNC1=CC(=O)C(NC)=CC1=O` gave a logP of 0.34.

Where the note is “pH 7.4”, `Cc1[nH]ccc2c1[nH]c1cc(=O)ccc12` yielded a logD of 2.18.

`COc1ccc2[nH]c(N)nc2c1`: the logP came out at 0.57.

In turn, `CN(C)c1nc2c3cccnc3ccc2n1C` came in with a logD (pH 7.4) of 2.28.

Consider `CC1=C(N2CC2)C(=O)c2ccc(CCOC(N)=O)c(N3CC3)c2C1=O`, for which the logP worked out at 0.16.

With `Nc1ccccc1S(N)(=O)=O`, the logP was determined as 0.22. The logP values of the last two molecules are within 0.2 log units of each other.

Turning to `C[C@H](C(=O)O)c1ccc(N2Cc3ccccc3C2=O)cc1`, the logP was found to be 2.89.

Turning to `CCc1ccc([N+](=O)[O-])cc1`, the logD (pH 7.4) came out at 3.03.

For `CS(=O)(=O)ON1C(=O)c2ccc([N+](=O)[O-])cc2C1=O`, the logP is 1.71.

Under “pH 1.0”, `O=C(O)c1ccccc1N1C(=O)CCC1=O` had a logD of 1.55.

Regarding `COC(=O)c1ccccc1N`, the logP is 1.88.

With `COP(=O)(OC)OC(C)=CC(=O)N(C)C`, the logP came to 0.

For `c1ccc(N2CCCC2)cc1`, the logP was determined as 3.56.

`CC(C)(C)Br` returned a logP of 1.15.

For the setting “pH 7.4”, `CC(C)Cn1c(=O)n(C)c(=O)c2[nH]c(CCN3CCN(C(c4ccc(F)cc4)c4ccc(F)cc4)CC3)nc21` gave a logD of 4.16.

For `CS(=O)(=O)CC#N`, the logP was -1.42.

For the molecule `CN(C)C1=CC(=O)c2ccccc2C1=O`, the logP was found to be 1.9.

Consider `CNC1=CC(=O)c2ccccc2C1=O`, for which the logP was 1.74. This logP and that of the molecule before are within 0.2 log units of each other.

`CCc1cc(Cc2cnc(N)nc2N)cc(CC)c1N` showed a logD (pH 13.0) of 1.82.

In the case of `C=CCOC1=NS(=O)(=O)c2ccccc21`, the logP came out at 1.4.

For the molecule `CC(C)(NC(=O)C(Br)C(C)(C)C)c1ccccc1` (configuration not stated), the log partition coefficient (logP) amounted to 3.46.

In turn, `Cn1c(N)nc2cc(C#N)ccc21` displayed a logP of 1.11.

`Cn1c(N)nc2ccc(Cl)cc21` had a logP of 2.01.

On to `CSc1ncc([N+](=O)[O-])n1C`, for which the logD (pH 7.4) was 0.94.

As to `CC(C(=O)O)c1ccc(N2C(=O)C3CCCCC3C2O)cc1` (configuration not stated), the logP was determined as 2.95.

In the case of `CCS(=O)(=O)c1c([N+](=O)[O-])ncn1C`, the logP was -0.37.

On to `CC(=O)CCC(C)=O`, for which the logP is -0.27.

For the molecule `CC(C)c1ccccc1N`, the logP came out at 2.12.

As to `CNc1c(Cl)cccc1Cl`, the logP stood at 2.91.

Molecule `CCC(C)c1cc([N+](=O)[O-])cc(C(C)CC)c1O` (configuration not stated) came in with a logP of 4.8.

`N#CCc1ccc([N+](=O)[O-])cc1`: the logP was 1.37.

`CN(C)C(=O)c1ccccc1O` displayed a logP of 0.44.

Turning to `CC(C)C(C#N)Cc1ccc(Cl)cc1` (configuration not stated), the logP worked out at 3.41.

Regarding `O=CN1CCCC1`, the logP was -0.32.

The molecule `CC(C)I` showed a logP of 2.89.

For `CCCSP(=S)(OCC)Oc1ccc(Cl)cc1Cl` (configuration not stated), the logP was determined as 4.92.

For `Cc1ccc2[nH]c(N)nc2c1`, the logP is 1.11.

As for `COc1ccccc1C(C)=O`, the logP was determined as 1.82.

`Nc1ccc(S)cc1` gave a logP of 1.31.

`O=Cc1ccccn1` gave a logP of 0.44.

As for `CCOc1cccnc1`, the logP was 1.44.

`CCCCOCN(C(=O)CCl)c1c(CC)cccc1CC` returned a logP of 4.5.

Consider `Cc1c(COC(=O)[C@@H]2[C@H](/C=C(\Cl)C(F)(F)F)C2(C)C)cccc1-c1ccccc1`, for which the logP is 6.

`O=C1C=C(N2CC=CC2)C(=O)c2ccccc21` showed a log partition coefficient (logP) of 2.85.

As for `Nc1nc(=O)cc[nH]1`, the logP was -0.99.

`Nc1cc(C(F)(F)F)ccc1Cl` showed a logP of 3.06.

`Cc1ncc([N+](=O)[O-])n1CCNC(=O)OC(C)C` had a logD (pH 7.4) of 0.88.

In the case of `COc1ccc(S(C)(=O)=O)cc1`, the logP amounted to 0.76.

Molecule `FC(F)(F)c1ccc(C(F)(F)F)cc1` had a logP of 3.83.

Regarding `Cc1c(Cl)ccc(OC(C)C(=O)Nc2ccccc2)c1Cl` (configuration not stated), the logP stood at 4.8.

In turn, `O=C(/C=C/c1ccc([N+](=O)[O-])o1)N/N=C/c1ccc([N+](=O)[O-])o1` gave a logD (pH 7.4) of 2.22.

In the case of `CCCCC#N`, the logD (pH 7.0) amounted to 1.12.

`C=C(C)Cl` came in with a logP of 2.

With `O=C1CCc2cccc3c2N1CC3`, the logP is 1.6.

`CC(C(=O)O)c1ccc(N2CC3CCCCC3C2=O)cc1` (configuration not stated) came in with a logP of 3.07.

Molecule `CC(C)c1ccc(O)cc1` registered a logP of 2.9.

The molecule `COc1c(C)ccc(Cc2cnc(N)nc2N)c1C(C)(C)C` showed a logD (pH 13.0) of 3.05.

For `Cn1c([N+](=O)[O-])cnc1C=NNC(N)=S`, the logD (pH 7.4) was 0.65.

In the case of `CC(=NNc1ccc([N+](=O)[O-])cc1[N+](=O)[O-])C(F)(F)F`, the logD (pH 4.0) turned out to be 3.3.

In turn, `Clc1nc(Cl)nc(Nc2ccccc2Cl)n1` returned a logP of 3.

`O=C(Nc1ccccc1)Nc1ccccc1` came in with a logP of 3.

With `NC(=O)C(Cl)Cl`, the logP turned out to be 0.19.

`CC(=O)Nc1cccc2cccnc12` showed a logD (pH 7.4) of 1.91.

In turn, `CC(C)c1ccc([N+](=O)[O-])cc1` registered a logD (pH 7.4) of 3.45.

With `CN(C)N=Nc1cccc2oc3ccccc3c12`, the logP was 4.55.

In the case of `O=C1C=C(N2CCCC2)C(=O)C=C1N1CCCC1`, the logP came out at 1.97.

Take `Cn1c(N)nc2ncc(-c3ccccc3)cc21`: for the setting “pH 7.4”, the logD amounted to 2.23.

Turning to `O=C1C(Br)=C(N2CC2)C(=O)C(Br)=C1N1CC1`, the logP came to 2.03.

Where the note is “pH 4.0”, `CC(C)=NNc1c([N+](=O)[O-])cc(C(F)(F)F)cc1[N+](=O)[O-]` yielded a logD of 3.2.

In turn, `Cc1ccc2c(c1)nc(N)n2C` yielded a logP of 1.47.

As for `Cc1cc(C)c2c(c1)C(c1ccccc1)=NCC(=O)N2`, the logD (pH 7.4) stood at 2.94.

In the case of `CCC(C)C#N` (configuration not stated), where the note is “pH 1.0”, the logD amounted to 1.1.

Regarding `CCOC(=O)Nc1cccc(OC(=O)Nc2ccccc2)c1`, the logP was determined as 3.39.

For `Nc1nc(=O)n([C@H]2CC[C@@H](CO)O2)cc1I`, the logD (pH 7.0) is -0.31.

`CC(C)(C)OC(=O)N[C@@H](Cc1ccccc1)C(=O)N[C@@H](Cc1ccc(O)cc1)C(=O)O` (Boc-Phe-Tyr-OH): the logD (pH 1.0) worked out at 2.79.

Take `CC1NC(=O)C(CC(=O)N[C@@H](Cc2c[nH]c3ccccc23)C(=O)N[C@@H](Cc2ccccc2)C(=O)N(C)Cc2ccccc2)NC1=O` (some centres not stated): the logP was found to be 3.18.

`CS(C)(=O)=O`: the logP was -1.34.

As for `NS(=O)(=O)Cc1ccccc1`, the logP was determined as 0.13.

In turn, `CC(C)[C@H](NC(=O)[C@H](Cc1ccccc1)NC(=O)OC(C)(C)C)C(=O)O` showed a lipophilicity (logP) of 2.88.

The molecule `O=C(NCCN1CCC(O)(c2ccc(Cl)cc2)CC1)c1ccc(F)cc1` showed a logP of 2.85. The logP values of the last two molecules are within 0.2 log units of each other.

`COc1ccc2c(c1)nc(N)n2C` returned a logP of 0.87.

With `O=C1C=C(N2CC2)C(=O)C=C1N1CC1`, the logP worked out at 0.18.

Consider `COC(=O)Cn1c([N+](=O)[O-])cnc1C`, for which, under “pH 7.4”, the logD came out at 0.17.

Consider `CCOC(=O)NNc1ccccc1`, for which the logP came to 1.22.

`c1cnc2nc[nH]c2c1` displayed a logP of 0.3.

The molecule `OCCNCc1ccccc1` yielded a logD (pH 13.0) of 0.79.

In turn, `Cc1c(Cl)cc(-c2ccc(=O)[nH]n2)cc1Cl` returned a logP of 3.2.

For the molecule `O=C(O)Cc1ccc2ccccc2c1`, the logD (pH 1.0) came out at 2.81.

For the molecule `c1ccc(-c2csnn2)cc1`, the logP was 2.42.

Molecule `CC(O)Cc1ccccc1` (configuration not stated) displayed a logP of 1.97.

On to `CCCCOC(NC(=O)c1ccccc1O)C(Cl)(Cl)Cl` (configuration not stated), for which the logP turned out to be 4.45.

For the setting “pH 13.0”, `CC1(C)CCCC(C)(C)N1` gave a logD of 2.15.

Consider `Oc1ccc(C(F)(F)F)cc1`, for which the logP was 2.82.

As for `COC(=O)CCCCC(=O)OC`, the logP was determined as 1.03.

Turning to `Oc1ccc(Sc2ccc(O)cc2)cc1`, the logP is 3.34.

As for `CC#CC#CC`, the logP came to 2.24.

Take `CC(C)N(C)/N=N/c1ccc(C(N)=O)cc1`: for the setting “pH 6.3”, the logD is 2.02.

As for `CC1(C)CCC(C)(C)O1`, the logP was determined as 2.06.

The molecule `CC(=S)N(c1ccccc1)c1ccccc1` gave a logP of 2.83.

In the case of `CCCCC(=O)OC`, the logP worked out at 1.96.

In the case of `Cc1ncc([N+](=O)[O-])n1CC(O)CCl` (configuration not stated), the logD (pH 7.4) came out at 0.58.

On to `COCCOc1ccccc1OCCOC`, for which the logP was 1.12.

`O=C(O)Cc1ccccc1Nc1c(F)cccc1F`: the logP turned out to be 3.57.

Turning to `COc1cccc(OC)c1Cc1cnc(N)nc1N`, the logD (pH 13.0) was 1.7.

For the setting “pH 7.0”, `Nc1nc(Cl)c2ncn([C@@H]3O[C@H](CO)C[C@@H]3F)c2n1` showed a logD of 0.28.

In the case of `O=C1C=CC(=O)C(Cl)=C1`, the logP stood at 0.84.

The molecule `CC(C)(C)Cl` displayed a logP of 1.82.

With `N=C(N)c1cccc([N+](=O)[O-])c1`, for the setting “pH 13.0”, the logD amounted to 0.72.

Consider `C1=c2ccc3cccc4ccc(c2c43)CC1`, for which the logP was determined as 4.92.

For `N=C(N)c1ccc(N)cc1`, under “pH 13.0”, the logD was -0.49.

`CNC(=O)CNC(=O)CCc1ccc(S(=O)(=O)N(C)C)cc1`: the logP is -0.35.

Consider `Clc1cc(Cl)c2cc(Cl)ccc2c1`, for which the logP came out at 5.35.

Take `Cc1cc(=O)cc(C)o1`: the logP was determined as 0.1.

`CC1CN1C1=C(F)C(=O)C(N2CC2C)=C(F)C1=O` (configuration not stated): the logP turned out to be 1.61.

Regarding `O=C(NCCCO)C(F)(F)Cn1ccnc1[N+](=O)[O-]`, the logP was -0.64.

For the molecule `CNC(=O)Oc1cccc2c1OC(C)(C)O2`, the logP came out at 1.7.

`COC(=O)CCCCCC(=O)OC` displayed a logP of 1.38.

Take `CC(C)SC(C)C`: the logP was 2.84.

In the case of `O=C(O)Cc1csc(-c2ccc(Cl)cc2)n1`, the logP was 3.29.
